Results as given in paper PMC9398180 (Molecular Cancer Therapeutics, 2021).

What was measured:
mouse LMP7 = mouse LMP7 (Mus musculus, UniProt O09061+P28063); experiment: Cellular LMP7 activity in mouse P3X63Ag8.653 cells; format: cell-based
[1] = molecular target: immunoproteasome subunit LMP2 (Homo sapiens, UniProt P28065+P40306); experiment: Cell-free proteasome subunit peptide cleavage assay, LMP2; format: biochemical
[2] = molecular target: constitutive proteasome subunit β1 (Homo sapiens, UniProt P28072+Q99436); experiment: Cell-free proteasome subunit peptide cleavage assay, β1; format: biochemical
primary human cells = experiment: BioMAP Diversity PLUS Panel for Broad Phenotypic Profiling; format: cell-based
[3] = molecular target: immunoproteasome subunit MECL-1 (Homo sapiens, UniProt P40306+P49720); experiment: Cell-free proteasome subunit peptide cleavage assay, MECL-1; format: biochemical
[4] = molecular target: constitutive proteasome subunit β2 (Homo sapiens, UniProt P49720+Q99436); experiment: Cell-free proteasome subunit peptide cleavage assay, β2; format: biochemical

SMILES	IC50 (mouse LMP7) [nM]	IC50 [1] [nM]	IC50 [2] [nM]	cytotoxicity toward primary human B cells, PBMCs, mononuclear cells, and venular endothelial cells (primary human cells; 33 nmol/L)	proliferation of primary human coronary artery smooth muscle cells, endothelial cells, fibroblasts, and T cells (primary human cells; non-cytotoxic concentration of 11 nmol/L)	IC50 [3] [nM]	IC50 [4] [nM]
CC(C)C[C@H](NC(=O)[C@H](Cc1ccccc1)NC(=O)c1cnccn1)B(O)O [Bortezomib]	5.3	–	–	–	–	–	–
CC(C)C[C@H](NC(=O)CNC(=O)c1cc(Cl)ccc1Cl)B(O)O [Ixazomib]	–	0.9 ± 0.2	28 ± 22	cytotoxic	reduced proliferation	5470	> 30000
